Molecules are shown by their SMILES.

The values below come from ChEMBL document CHEMBL1149176, “(2R)-2-ethylchromane-2-carboxylic acids: discovery of novel PPARalpha/gamma dual agonists as antihyperglycemic and hypolipidemic agents” (J Med Chem, 2004).

The target of assay [1] is T1, Peroxisome proliferator-activated receptor gamma (Homo sapiens, UniProt P37231).
T1 sequence (P37231 whole entry): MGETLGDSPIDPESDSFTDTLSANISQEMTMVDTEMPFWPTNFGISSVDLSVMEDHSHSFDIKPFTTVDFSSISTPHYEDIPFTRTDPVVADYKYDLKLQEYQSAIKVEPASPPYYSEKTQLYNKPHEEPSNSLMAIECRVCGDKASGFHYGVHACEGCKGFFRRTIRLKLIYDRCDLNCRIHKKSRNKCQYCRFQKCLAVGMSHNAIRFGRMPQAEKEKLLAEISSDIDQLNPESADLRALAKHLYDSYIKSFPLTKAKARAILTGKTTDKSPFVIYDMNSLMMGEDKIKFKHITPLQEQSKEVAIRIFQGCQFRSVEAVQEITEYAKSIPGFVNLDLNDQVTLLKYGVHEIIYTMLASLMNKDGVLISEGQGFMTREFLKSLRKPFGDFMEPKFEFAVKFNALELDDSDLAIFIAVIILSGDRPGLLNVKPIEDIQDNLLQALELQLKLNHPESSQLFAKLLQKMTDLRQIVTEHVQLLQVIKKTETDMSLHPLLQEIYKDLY
Description: In vitro binding affinity for human peroxisome proliferator activated receptor gamma using scintillation proximity assay (SPA).

Assay [2] addresses T2, Peroxisome proliferator-activated receptor alpha (Homo sapiens, UniProt Q07869).
T2 sequence (Q07869 whole entry): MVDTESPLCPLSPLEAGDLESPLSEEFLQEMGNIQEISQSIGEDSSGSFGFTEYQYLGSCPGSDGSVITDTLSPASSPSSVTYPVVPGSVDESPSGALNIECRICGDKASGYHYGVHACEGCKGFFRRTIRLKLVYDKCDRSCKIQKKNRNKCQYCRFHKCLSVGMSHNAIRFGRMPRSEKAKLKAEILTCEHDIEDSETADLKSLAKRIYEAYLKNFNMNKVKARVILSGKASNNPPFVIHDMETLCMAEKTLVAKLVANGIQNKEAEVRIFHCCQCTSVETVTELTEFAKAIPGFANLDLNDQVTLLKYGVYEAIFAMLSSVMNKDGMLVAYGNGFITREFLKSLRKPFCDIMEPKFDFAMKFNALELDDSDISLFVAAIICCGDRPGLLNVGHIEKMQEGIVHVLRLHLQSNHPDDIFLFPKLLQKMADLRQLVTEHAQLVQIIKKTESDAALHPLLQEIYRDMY
Briefly: In vitro potency of PPAR gene activation against human Peroxisome proliferator activated receptor alpha using chimeric Gal4-hPPAR transactivation assay (TA).

Assay [3] concerns the target T2, Peroxisome proliferator-activated receptor alpha.
Description: In vitro binding affinity for human peroxisome proliferator activated receptor alpha using scintillation proximity assay (SPA)
The target of assay [4] is T1, Peroxisome proliferator-activated receptor gamma.
Description: In vitro potency of PPAR gene activation against human PPAR gamma receptor using chimeric Gal4-hPPAR transactivation assay (TA)
The target in assay [5] is T3, Peroxisome proliferator-activated receptor delta (Homo sapiens, UniProt Q03181).
T3 sequence (Q03181 whole entry): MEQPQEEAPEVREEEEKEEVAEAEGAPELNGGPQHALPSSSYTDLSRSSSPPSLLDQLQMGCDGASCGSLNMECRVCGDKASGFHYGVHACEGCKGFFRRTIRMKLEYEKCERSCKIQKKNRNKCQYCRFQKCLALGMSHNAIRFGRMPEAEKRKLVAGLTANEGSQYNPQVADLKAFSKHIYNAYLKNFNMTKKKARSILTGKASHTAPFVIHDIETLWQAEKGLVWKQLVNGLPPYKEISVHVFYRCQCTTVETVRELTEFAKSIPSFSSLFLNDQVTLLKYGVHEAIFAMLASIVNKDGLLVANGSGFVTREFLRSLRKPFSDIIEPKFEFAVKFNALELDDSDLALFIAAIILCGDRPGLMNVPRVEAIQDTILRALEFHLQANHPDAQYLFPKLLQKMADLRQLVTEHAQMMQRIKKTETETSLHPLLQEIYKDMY

The target in assay [6] is T2, Peroxisome proliferator-activated receptor alpha. Description: In vitro transcriptional activation by human PPAR alpha Gal4 chimera; Not active.
Assay [7] concerns the target T1, Peroxisome proliferator-activated receptor gamma. Briefly: In vitro transcriptional activation by human PPAR gamma Gal4 chimera.
Assay [8] has the same target. This is another data set of the same source.
Description: In vitro binding affinity for human PPAR gamma receptor using scintillation proximity assay (SPA)
The test system of assay [9] is Cricetinae gen. sp. Briefly: In vivo percent change in serum cholesterol in hamsters at 100 mg/kg. Format: functional, Cricetulus griseus.
For assay [10], the system named is Cricetinae gen. sp. Briefly: In vivo serum cholesterol in hamsters at 100 mg/kg. Format: functional, Cricetulus griseus.
Assay [11] concerns Cricetinae gen. sp. Briefly: In vivo percent change in triglyceride in hamsters at 100 mg/kg. Format: functional, Cricetulus griseus.
The test system of the next assay is Canis familiaris. Briefly: In vivo percent change in serum cholesterol in dogs at 50 mg/kg. It counts as functional, Canis lupus familiaris.

The IC50 is the point on the concentration scale where inhibition reaches its midpoint. A high value points to lower potency. The EC50 is the concentration needed to bring the measured effect to its halfway point. Low readings indicate greater potency, high ones weaker potency. Regarding `CCCc1cc(Oc2ccc(OC)cc2)ccc1OCCCOc1ccc2c(c1)OC(CC)(C(=O)O)CC2` (stereo not drawn), the values for the IC50 in assay [1], in [3] and in assay [5] were 630 nM, > 15000 nM and > 50000 nM, respectively. The EC50 worked out at 4600 nM in [2] and 890 nM in [4].

Turning to `CC[C@@]1(C(=O)O)CCc2ccc(OCCCOc3ccc(Oc4ccc(F)cc4)cc3Cl)cc2O1`, the IC50 in assay [5] is > 50000 nM.

`CCCc1cc(Oc2ccccc2)ccc1OCCCOc1ccc2c(c1)CCC(C(=O)O)O2` (stereo not drawn): the concentration for a half-maximal effect (EC50) entry in assay [6] was “Not Active”; in assay [4], 2800 nM. Besides, the figures for the half-maximal inhibitory concentration (IC50) in assay [1], in assay [3] and in assay [5] were 2900 nM, > 15000 nM and > 15000 nM, respectively.

With `CCCc1cc(Oc2ccccc2)ccc1OCCCOc1ccc2c(c1)OC(CC(C)C)(C(=O)O)CC2` (stereo not drawn), the IC50 in [1] turned out to be 1200 nM; in assay [3] it was 3000 nM; in assay [5], 5000 nM.

Consider `CCCc1cc(Oc2ccccc2)ccc1OCCCCOc1ccc2c(c1)OC(C(=O)O)CC2` (stereo not drawn), for which the concentration for half-maximal inhibition (IC50) in [1] is 1800 nM; in assay [3], > 15000 nM; in [5], > 15000 nM. The EC50 in [2] was 6300 nM; in [4], 1600 nM.

In the case of `CCCc1cc(Oc2ccccc2)ccc1OCCCCOc1ccc2c(c1)OC(C)(C(=O)O)CC2` (stereo not drawn), the IC50 is 5100 nM in [1], > 15000 nM in assay [3] and > 50000 nM in assay [5]. The EC50 amounted to 5200 nM in assay [2] and 3600 nM in assay [4].

`CCCc1cc(Oc2ccccc2)ccc1OCCCOc1ccc2c(c1)OC(CC)(C(=O)O)CC2` (stereo not drawn): the concentration for half-maximal inhibition (IC50) in assay [1] is 440 nM; in assay [3], 360 nM; in assay [5], > 50000 nM. Also, the EC50 in assay [2] amounted to 30 nM; in [4] it was 1000 nM.

On to `CCCc1cc(Oc2ccc(Cl)cc2)ccc1OCCCOc1ccc2c(c1)OC(CC)(C(=O)O)CC2` (stereo not drawn), for which the IC50 in [1] was 1400 nM; in assay [3], 4000 nM; in [5], > 50000 nM. Also, the half-maximal effective concentration (EC50) in assay [2] stood at 210 nM; in [4] it was 670 nM.

As for `CCCc1cc(Oc2ccc(F)cc2)ccc1OCCCOc1ccc2c(c1)OC(CC)(C(=O)O)CC2` (stereo not drawn), the results for the IC50 in assay [1], in [3] and in assay [5] were 1200 nM, 970 nM and > 50000 nM, respectively. Besides, the EC50 in assay [2] stood at 10 nM; in assay [4], 750 nM.

On to `CC1(C(=O)O)CCc2ccc(OCCCOc3ccc(Oc4ccccc4)cc3Cl)cc2O1` (stereo not drawn), for which the IC50 in [1] is 1400 nM; in assay [3] it was 120 nM; in assay [5], > 15000 nM. Further, the values for the EC50 in assay [2] and in [7] were 80 nM and 360 nM, respectively.

As to `CCC1(C(=O)O)CCc2ccc(OCCCOc3ccc(Oc4ccccc4)cc3F)cc2O1` (stereo not drawn), the concentration for half-maximal inhibition (IC50) in assay [1] is 4700 nM; in assay [3], 370 nM; in [5], > 50000 nM. In addition, the EC50 in assay [2] came to 50 nM; in assay [7] it was 1000 nM.

`CCCc1cc(Oc2ccc(S(C)(=O)=O)cc2)ccc1OCCCOc1ccc2c(c1)OC(CC)(C(=O)O)CC2` (stereo not drawn): the EC50 result in assay [6] is “Not Active”; in assay [4], 2800 nM. Moreover, the half-maximal inhibitory concentration (IC50) in [3] is > 15000 nM; in [8], 370 nM; in assay [5], > 50000 nM.

In the case of `CCCc1cc(Oc2ccccc2)ccc1OCCCOc1ccc2c(c1)CCC(C)(C(=O)O)O2` (stereo not drawn), the EC50 result in assay [6] was “Not Active”; in assay [4], 6800 nM. Besides, the IC50 in assay [1] was 1700 nM; in assay [3], 3300 nM; in assay [5] it was > 50000 nM.

For `CCCc1cc(Oc2ccccc2)ccc1OCCCCOc1ccc2c(c1)CCC(C(=O)O)O2` (stereo not drawn), the EC50 result in [6] is “Not Active”; in assay [4], 2500 nM. Moreover, the results for the half-inhibitory concentration (IC50) in [1], in [3] and in assay [5] were 3000 nM, 5800 nM and > 50000 nM, respectively.

On to `CCCc1cc(Oc2ccccc2)ccc1OCCCOc1ccc2c(c1)OC(C)(C(=O)O)CC2` (stereo not drawn), for which the half-inhibitory concentration (IC50) is 750 nM in [1], 1900 nM in assay [3] and > 50000 nM in assay [5]. For the same compound, the results for the concentration for a half-maximal effect (EC50) in [2] and in [4] were 100 nM and 1000 nM, respectively.

Regarding `CCCc1cc(Oc2ccccc2)ccc1OCCCOc1ccc2c(c1)OC(C(=O)O)CC2` (stereo not drawn), the IC50 in [1] is 980 nM; in [3], 1500 nM; in assay [5], 170 nM. The EC50 in assay [2] was determined as 3000 nM; in [4], 7300 nM.

Consider `CCC1(C(=O)O)CCc2ccc(OCCCOc3ccc(Oc4ccccc4)cc3Cl)cc2O1` (stereo not drawn), for which the EC50 in assay [2] amounted to 30 nM; in [4] it was 160 nM. In addition, the IC50 is 120 nM in assay [3], 690 nM in assay [8] and > 15000 nM in assay [5].

Consider `CCC1(C(=O)O)CCc2ccc(OCCCOc3ccc(Oc4ccccc4)cc3)cc2O1` (stereo not drawn), for which the results for the concentration for half-maximal inhibition (IC50) in assay [1], in assay [3] and in assay [5] were > 15000 nM, 1700 nM and > 50000 nM, respectively. For the same compound, the EC50 stood at 220 nM in assay [2] and 10000 nM in [7].

With `CCCc1cc(Oc2ccccc2)ccc1OCCCOc1ccc2c(c1)OC(CCC)(C(=O)O)CC2` (stereo not drawn), the half-inhibitory concentration (IC50) in assay [1] is 370 nM; in [3] it was 2100 nM; in assay [5], > 50000 nM. Further, the 50% effective concentration (EC50) in assay [2] is 120 nM; in [4], 830 nM.

Turning to `CCCc1cc(Oc2ccccc2)ccc1OCCCCOc1ccc2c(c1)CCC(C)(C(=O)O)O2` (stereo not drawn), the EC50 entry in [6] was “Not Active”; in assay [4] it was 1200 nM. For the same compound, the concentration for half-maximal inhibition (IC50) is 2300 nM in assay [1], 2000 nM in [3] and > 50000 nM in assay [5].

Consider `CC(C)OC(=O)C(C)(C)Oc1ccc(C(=O)c2ccc(Cl)cc2)cc1` [FENOFIBRATE], for which the figures for the Change in the assay with Cricetinae gen. sp. [9], in the assay with Cricetinae gen. sp. [11] and in the assay with Canis familiaris were -38%, -44% and -16.3%, respectively. In the assay with Cricetinae gen. sp. [10], this compound registered an Activity of 67 mg/dL.
